According to ChEMBL document CHEMBL1142553, “A new vitamin E (alpha-tocomonoenol) from eggs of the Pacific salmon Oncorhynchus keta” (J Nat Prod, 1999):
Calls of active or inactive are those of the source. The calls are words filed in the database; no cut-off is given here.

Columns and labels:
Assay type in all cases: functional
[1] = Antioxidant activity assessed as inhibition of rate of formation of phosphatidylcholine hydroperoxides at 2.2 uM by phosphatidylcholine oxidation assay
[2] = Antioxidant activity in methanolic solution at 83 uM at 37 degC
[3] = Antioxidant activity assessed as inhibition of rate of formation of phosphatidylcholine hydroperoxides at 1.9 uM by phosphatidylcholine oxidation assay

In the case of `Cc1c(C)c2c(c(C)c1O)CC[C@@](C)(CCC[C@H](C)CCC[C@H](C)CCCC(C)C)O2`, the Activity [1] is reported as “Active” and the Activity [2] is reported as “Active”.

For `C=C(C)CCC[C@@H](C)CCC[C@@H](C)CCC[C@]1(C)CCc2c(C)c(O)c(C)c(C)c2O1`, the Activity [3] was “Active” and the Activity [2] was “Active”.
